Results on 15 compounds are retold here after ChEMBL document CHEMBL1142481, “Novel 5-HT(1A/1B/1D) receptors antagonists with potent 5-HT reuptake inhibitory activity” (Bioorg Med Chem Lett, 2008).

The target of series [1] is T1, 5-hydroxytryptamine receptor 1D (Homo sapiens, UniProt P28221). As to the kind of experiment: Displacement of [3H]5HT from human cloned 5HT1D receptor expressed in CHO cells. The series is classed as cell-based. For orientation: Displacement assays read how much labelled ligand stays bound in the presence of the test substance.
The target in series [2] is T2, 5-hydroxytryptamine receptor 1A (Homo sapiens, UniProt P08908).
T2 sequence (P08908 whole entry): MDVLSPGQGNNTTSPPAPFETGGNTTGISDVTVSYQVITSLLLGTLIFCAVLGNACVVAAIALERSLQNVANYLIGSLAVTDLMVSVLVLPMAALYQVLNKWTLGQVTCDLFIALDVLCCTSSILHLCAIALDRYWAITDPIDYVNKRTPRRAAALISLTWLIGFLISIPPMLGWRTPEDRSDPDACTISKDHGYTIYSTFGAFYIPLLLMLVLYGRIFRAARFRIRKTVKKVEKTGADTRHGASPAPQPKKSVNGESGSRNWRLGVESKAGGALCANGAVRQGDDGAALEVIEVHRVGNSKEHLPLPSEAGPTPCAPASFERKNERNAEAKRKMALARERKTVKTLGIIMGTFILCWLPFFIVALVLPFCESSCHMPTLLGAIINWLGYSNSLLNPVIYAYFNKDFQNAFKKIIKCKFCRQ
As to the kind of experiment: Displacement of [3H]5HT from human cloned 5HT1A receptor expressed in CHO cells. The series is classed as cell-based.

Series [3] concerns the target Sodium-dependent serotonin transporter (Rattus norvegicus, UniProt P31652). As to the kind of experiment: Inhibition of [3H]5HT reuptake at SERT in rat cortical synaptosomes. The series is classed as subcellular, Brain.
Series [4] has as its target T3, 5-hydroxytryptamine receptor 1B (Homo sapiens, UniProt P28222). As to the kind of experiment: Displacement of [3H]5HT from human cloned 5HT1B receptor expressed in CHO cells. The series is classed as cell-based.
For series [5], the target named is T3, 5-hydroxytryptamine receptor 1B. As to the kind of experiment: Intrinsic activity at human cloned 5HT1B receptor expressed in CHO cells. The series is classed as cell-based.
Series [6] has as its target T1, 5-hydroxytryptamine receptor 1D. As to the kind of experiment: Intrinsic activity at human cloned 5HT1D receptor expressed in CHO cells. The format is cell-based.
Series [7] has as its target T4, 5-hydroxytryptamine receptor 1A (Homo sapiens) (UniProt P08908).
T4 sequence (whole entry): T2 sequence (P08908 whole entry)
As to the kind of experiment: Intrinsic activity at human cloned 5HT1A receptor expressed in CHO cells. The series is classed as cell-based.

Series [8] can be described thus: Oral bioavailability in rat at 3 mg/kg. The format is ADME, organism-based. As to conditions: in vivo.
Series [9] in a line: Clearance in rat at 3 mg/kg, po. The series is classed as ADME, organism-based. Set-up: dose 3 mg/kg, route oral. As to conditions: in vivo.
The nature of series [10]: Cmax in rat at 3 mg/kg, po. The format is ADME, organism-based. Set-up: dose 3 mg/kg, route oral. As to conditions: in vivo.

T1 sequence (P28221 whole entry): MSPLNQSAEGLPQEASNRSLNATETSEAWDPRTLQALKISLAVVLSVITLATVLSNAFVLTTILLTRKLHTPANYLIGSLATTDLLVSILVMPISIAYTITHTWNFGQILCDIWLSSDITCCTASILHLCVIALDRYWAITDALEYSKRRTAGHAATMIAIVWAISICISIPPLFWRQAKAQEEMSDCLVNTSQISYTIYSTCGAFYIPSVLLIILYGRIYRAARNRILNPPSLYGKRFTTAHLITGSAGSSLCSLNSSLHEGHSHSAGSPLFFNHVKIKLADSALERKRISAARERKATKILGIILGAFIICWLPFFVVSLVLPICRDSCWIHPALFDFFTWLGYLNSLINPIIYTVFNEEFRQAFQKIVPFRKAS
T3 sequence (P28222 whole entry): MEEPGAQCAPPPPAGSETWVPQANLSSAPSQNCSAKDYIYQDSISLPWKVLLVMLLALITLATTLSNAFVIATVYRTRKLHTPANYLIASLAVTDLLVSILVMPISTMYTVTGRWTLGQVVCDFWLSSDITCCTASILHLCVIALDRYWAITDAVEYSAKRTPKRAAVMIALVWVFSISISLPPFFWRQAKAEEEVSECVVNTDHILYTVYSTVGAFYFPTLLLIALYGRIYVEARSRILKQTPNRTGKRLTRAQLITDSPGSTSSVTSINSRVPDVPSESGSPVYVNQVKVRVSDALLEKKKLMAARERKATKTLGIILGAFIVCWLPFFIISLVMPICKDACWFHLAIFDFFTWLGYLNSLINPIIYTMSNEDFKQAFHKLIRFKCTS
Sodium-dependent serotonin transporter, sequence (P31652 whole entry): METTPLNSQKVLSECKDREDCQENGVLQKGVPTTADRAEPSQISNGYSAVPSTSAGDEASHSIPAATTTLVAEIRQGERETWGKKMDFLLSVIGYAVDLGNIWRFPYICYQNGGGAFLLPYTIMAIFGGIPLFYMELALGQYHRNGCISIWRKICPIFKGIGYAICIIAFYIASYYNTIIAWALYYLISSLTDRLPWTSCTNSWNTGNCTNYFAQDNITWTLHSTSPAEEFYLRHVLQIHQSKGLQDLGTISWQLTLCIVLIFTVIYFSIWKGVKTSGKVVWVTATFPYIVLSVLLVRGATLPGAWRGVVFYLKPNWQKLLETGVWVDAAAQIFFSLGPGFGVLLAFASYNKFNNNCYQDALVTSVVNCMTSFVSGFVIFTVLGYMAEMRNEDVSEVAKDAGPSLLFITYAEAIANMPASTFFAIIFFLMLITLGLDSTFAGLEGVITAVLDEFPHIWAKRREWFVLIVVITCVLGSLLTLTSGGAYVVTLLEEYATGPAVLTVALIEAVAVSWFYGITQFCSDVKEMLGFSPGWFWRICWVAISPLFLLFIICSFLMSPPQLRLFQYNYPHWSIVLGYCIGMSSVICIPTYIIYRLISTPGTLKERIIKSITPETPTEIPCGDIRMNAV

The term Ki denotes a measure of affinity in units of concentration, obtained from inhibition or displacement. A lower Ki goes with a stronger hold on the target. In the case of `Cc1ccc2c(OC(C)CN3CCC(Cc4ccc5c(c4)NC(=O)CO5)CC3)cccc2n1` (racemic), the Ki in [1] was 79.4 nM; in series [2], 398 nM; in series [3], 251 nM; in series [4], 200 nM.

For `Cc1ccc2c(OCC(C)N3CCC(Cc4ccc5c(c4)NC(=O)CO5)CC3)cccc2n1` (single isomer, unassigned; enantiomer II), the Ki was 501 nM in series [1], 100 nM in series [2] and 100 nM in series [4].

Consider `Cc1ccc2c(OC3CCN(CCc4ccc5c(c4)NC(=O)CO5)CC3)cccc2n1`, for which the Ki in [1] is 6.31 nM; in [2] it was 316 nM; in series [3], 100 nM; in [4] it was 25.1 nM.

In the case of `Cc1ccc2c(OCC3CCN(Cc4ccc5c(c4)NC(=O)CO5)CC3)cccc2n1`, in [2], the Ki was greater than 1580 nM.

In the case of `Cc1ccc2c(OC3CCN(Cc4ccc5c(c4)NC(=O)CO5)CC3)cccc2n1`, the Ki in [1] was 1260 nM; in series [2] it was greater than 10000 nM; in series [3] it was 200 nM; in series [4], greater than 2510 nM.

As for `Cc1ccc2c(OCCN3CC(COc4ccc5c(c4)NC(=O)CO5)C3)cccc2n1`, the Ki in series [1] was 7.94 nM; in series [2], 50.1 nM; in [3], 63.1 nM; in [4] it was 50.1 nM. Besides, the Intrinsic activity in series [5] is 0.5; in series [6], 0.5; in series [7] it was 0.3.

Regarding `Cc1ccc2c(OCC3CCN(CC(=O)c4ccc5c(c4)NC(=O)CO5)CC3)cccc2n1`, the Ki in series [1] was 251 nM; in series [2], 501 nM; in series [3] it was 794 nM; in series [4], 631 nM.

Consider `Cc1ccc2c(OCCCN3CC(COc4ccc5c(c4)NC(=O)CO5)C3)cccc2n1`, for which the Ki was 158 nM in series [1], 79.4 nM in [2] and 316 nM in series [4].

Consider `Cc1ccc2c(N3CCN(Cc4ccc5c(c4)NC(=O)CO5)CC3)cccc2n1`, for which the Ki in series [1] was 126 nM; in series [2], 631 nM; in series [3], 794 nM; in series [4] it was greater than 10000 nM.

Regarding `Cc1ccc2c(OCC(C)N3CCC(Cc4ccc5c(c4)NC(=O)CO5)CC3)cccc2n1` (single isomer, unassigned; enantiomer I), the figures for the Ki in [1], in series [2] and in [4] were 251 nM, 50.1 nM and 39.8 nM, respectively.

`Cc1ccc2c(N3CCN(CCCc4ccc5c(c4)NC(=O)CO5)CC3)cccc2n1` displayed an Intrinsic activity in series [7] of 0.

What is called bioavailability is dose-corrected exposure relative to a reference, in per cent. Read a high bioavailability as good availability. As usually defined, the CL/F is clearance divided by bioavailability, as obtained after extravascular dosing. Usually Cmax stands for the highest concentration seen after dosing. On to `Cc1ccc2c(N3CCN(CCc4ccc5c(c4)NC(=O)CO5)CC3)cccc2n1`, for which the bioavailability in series [8] is 72%. Also, the figures for the Intrinsic activity in series [5] and in series [7] were 0.1 and 0.2, respectively. Also, in [9], the CL/F is 7 mL/min/kg. For the same compound, in series [10], the maximum concentration (Cmax) worked out at 360 ng/mL.

As for `Cc1ccc2c(OC3CCN(CC(=O)c4ccc5c(c4)NC(=O)CO5)CC3)cccc2n1`, the Ki in series [1] was 2000 nM; in series [2], greater than 10000 nM; in [4] it was greater than 5010 nM.

In turn, `Cc1ccc2c(OCCCN3CC(Oc4ccc5c(c4)NC(=O)CO5)C3)cccc2n1` gave a Ki in [2] of 158 nM. That is a sub-micromolar value.

As to `Cc1ccc2c(OCCN3CCC(Cc4ccc5c(c4)NC(=O)CO5)CC3)cccc2n1`, the Intrinsic activity in series [5] was 0.5; in series [6] it was 0.5; in series [7], 0.1.
